Patent US9421237B2, “Tripeptide boronic acid or boronic ester, preparative method and use thereof” (PEKING UNIVERSITY, priority 2009, dated 2016)

Legend:
[1] = molecular target: T1, 20S proteasome extracted from rat liver, chymotryptic-like (CT-L) activity (Rattus norvegicus, UniProt P18421+P28075); experiment: Proteasome inhibition, chymotryptic-like (CT-L) activity, fluorescent peptide Suc-leu-leu-Val-Tyr-AMC; type: biochemical; conditions: rat liver 20S proteasome, 37° C., 1 h
T1 construct: 20S proteasome extracted from rat liver; from tissue; host or cells: rat liver
Method in brief: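 Rat liver 20S proteasome (1 μg) incubated 1 h at 37° C with compounds and 50 μM Suc-Leu-Leu-Val-Tyr-AMC in 20 mM Tris-HCl.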

[2] = system: BGC-823 human gastric cancer cell; experiment: Preliminary anti-tumor screening in vitro, SRB method; type: cell-based; design: key to Test results: +++: inhibition rates at three doses are greater than 50%; ++: inhibition rates at two doses are greater than 50%; +: inhibition rate at one dose is greater than 50%; conditions: BGC-823, SRB; for Test results: number of doses with inhibition > 50%; for inhibition at 0.05 µM / inhibition at 0.5 µM / inhibition at 5 µM: Homo sapiens, read-out: Inhibition rate %
Method in brief: (§1)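 In vitro cytotoxicity by routine methods: MTT read-out for HL-60 cells, SRB read-out for BGC-823, Bel-7402 and KB cells.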

[3] = system: KB human nasopharyngeal carcinoma cell; experiment: as above; type: cell-based; design: key to Test results: +++: inhibition rates at three doses are greater than 50%; ++: inhibition rates at two doses are greater than 50%; +: inhibition rate at one dose is greater than 50%; conditions: for inhibition at 0.05 µM / inhibition at 0.5 µM / inhibition at 5 µM: Homo sapiens, read-out: Inhibition rate %; for Test results: number of doses with inhibition > 50%
Method in brief: as §1

[4] = system: Bel-7402 human hepatocarcinoma cell; experiment: as above; type: cell-based; design: key to Test results: +++: inhibition rates at three doses are greater than 50%; ++: inhibition rates at two doses are greater than 50%; +: inhibition rate at one dose is greater than 50%; conditions: Bel-7402, SRB; for Test results: number of doses with inhibition > 50%; for inhibition at 0.05 µM / inhibition at 0.5 µM / inhibition at 5 µM: Homo sapiens, read-out: Inhibition rate %
Method in brief: as §1

[5] = system: murine H22 cells; experiment: In vivo anti-tumor activity, H22 tumor in ICR mice, oral administration; conditions: for Animal numbers Start/End / Body weight (g) (X ± SD): ICR mice with H22; for Inhibition rate (%) / Tumor weight (g) (X ± SD): tumors weighed at 12th day
Procedure: Animal: ICR mice, half male and half female (18-22 g), provided by Laboratory Animal Science Department of Peking Medical University.
Tumor cell strain: murine H22 cells were provided by cell bank of pharmacological group of the State Key Laboratory of Natural and Biomimetic Drugs.
Method: Murine tumor cells were taken to be treated, and diluted to 5×10^6 cells/ml after treatment. The diluted tumor cells solution was inoculated to the left forelimb oxter of the mice with 0.2 ml/mouse under aseptic condition. 24 h after inoculation, the mice were divided into groups and orally administered once per day to the mice in each group for 10 days. At the 12th day, the tumors were peeled off and weighed, and the average weight of the tumor, standard deviation (SD) and p-value of each group were calculated.

[6] = molecular target: T2, 20S proteasome extracted from rat liver, peptidyl-glutamyl-peptide-hydrolyzing (PGPH) enzyme activity (Rattus norvegicus, UniProt P28073+Q9JHW0); experiment: Proteasome inhibition, PGPH activity, fluorescent peptide Z-leu-leu-Glu-βNA; type: biochemical; conditions: rat liver 20S proteasome, 37° C., 1 h
T2 construct: 20S proteasome extracted from rat liver; from tissue; host or cells: rat liver
Method in brief: (§2)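 Rat liver 20S proteasome (1 μg) incubated 1 h at 37 °C with compounds, 50 μM fluorogenic peptide and 20 mM Tris-HCl. AMC release read at 380/440 nm and βNA release at 335/410 nm. Inhibition rate calculated against a 0.1% DMSO solvent control.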

[7] = molecular target: T3, 20S proteasome extracted from rat liver, trypsin-like (TL) activity (Rattus norvegicus, UniProt P40112+Q9JHW0); experiment: Proteasome inhibition, trypsin-like (TL) activity, fluorescent peptide Z-Ala-Arg-Arg-AMC; type: biochemical; conditions: rat liver 20S proteasome, 37° C., 1 h; read-out: T-L (IC50)
T3 construct: 20S proteasome extracted from rat liver; from tissue; host or cells: rat liver
Method in brief: as §2

[8] = system: HL-60 human leukemia cell; experiment: Preliminary anti-tumor screening in vitro, MTT method; type: cell-based; design: key to Test results: +++: inhibition rates at three doses are greater than 50%; ++: inhibition rates at two doses are greater than 50%; +: inhibition rate at one dose is greater than 50%; conditions: HL-60, MTT; for Test results: number of doses with inhibition > 50%; for inhibition at 0.05 µM / inhibition at 0.5 µM / inhibition at 5 µM: Homo sapiens, read-out: Inhibition rate %
Method in brief: as §1

[9] = 1 mg/kg orally once per day for 10 days
[10] = 2 mg/kg orally once per day for 10 days

CC(C)C[C@H](NC(=O)[C@H](Cc1ccc2ccccc2c1)NC(=O)[C@H](CC(C)C)NC(=O)c1cnccn1)B(O)O [Compound 6f, N-pyrazineformyl-L-leucyl-L-naphthylalanyl-L-leucine Boronic Acid] was tested, and the IC50 [1] was 0.079 ± 0.011 nM, the Test results [2] was “+++” and the inhibition at 0.05 µM [2] was 80.3%. The inhibition at 0.5 µM [2] was 95.5%, the inhibition at 5 µM [2] was 96.8% and the inhibition at 0.05 µM [3] was 32.1%. The inhibition at 0.5 µM [3] was 95.7%, the inhibition at 5 µM [3] was 97.8% and the Test results [3] was “++”. The Test results [4] was “++”, the inhibition at 0.05 µM [4] was 39.4% and the inhibition at 0.5 µM [4] was 90.6%. For the same compound, the inhibition at 5 µM [4] was 93.7%, the “Animal numbers Start/End” value [5, 9] was 8/6 and the “Body weight (g) (X ± SD)” value [5, 9] was 1.49 ± 1.07 g. For the same compound, the “Inhibition rate (%)” value [5, 9] was 51.67%, the “Tumor weight (g) (X ± SD)” value [5, 9] was 0.60 ± 0.16 g and the “Animal numbers Start/End” value [5, 10] was 8/5. The “Body weight (g) (X ± SD)” value [5, 10] was 0.04 ± 4.29 g, the “Inhibition rate (%)” value [5, 10] was 55.34% and the “Tumor weight (g) (X ± SD)” value [5, 10] was 0.56 ± 0.17 g. The IC50 [6] was 3.63 ± 1.67 nM, the IC50 [7] was greater than 20 nM and the Test results [8] was “++”. It also gave an inhibition at 0.05 µM [8] of 1.26%, an inhibition at 0.5 µM [8] of 87.4% and an inhibition at 5 µM [8] of 88.6%.

With CC(C)C[C@H](NC(=O)[C@H](Cc1ccc2ccccc2c1)NC(=O)[C@H](Cc1ccccc1)NC(=O)c1cnccn1)B(O)O [Compound 6g, N-pyrazineformyl-L-phenylalanyl-L-naphthylalanyl-L-leucine Boronic Acid] the IC50 [1] was 0.111 ± 0.05 nM, the Test results [2] was “+++” and the inhibition at 0.05 µM [2] was 76.9%. The inhibition at 0.5 µM [2] was 95.5%, the inhibition at 5 µM [2] was 97.1% and the inhibition at 0.05 µM [3] was 59.4%. The inhibition at 0.5 µM [3] was 96%, the inhibition at 5 µM [3] was 96.7% and the Test results [3] was “+++”. The Test results [4] was “++”, the inhibition at 0.05 µM [4] was 37.9% and the inhibition at 0.5 µM [4] was 72.2%. For the same compound, the inhibition at 5 µM [4] was 93.4%, the “Animal numbers Start/End” value [5, 9] was 8/8 and the “Body weight (g) (X ± SD)” value [5, 9] was -1.28 ± 2.83 g. For the same compound, the “Inhibition rate (%)” value [5, 9] was 34.24%, the “Tumor weight (g) (X ± SD)” value [5, 9] was 0.82 ± 0.36 g and the “Animal numbers Start/End” value [5, 10] was 8/8. For the same compound, the “Body weight (g) (X ± SD)” value [5, 10] was -0.53 ± 2.58 g, the “Inhibition rate (%)” value [5, 10] was 56.33% and the “Tumor weight (g) (X ± SD)” value [5, 10] was 0.54 ± 0.28 g. For the same compound, the “Toxicity in the in vivo anti-tumor test, compared with bortezomib (PS341)” value ([5]; ICR mice with H22, oral) was “even lower”, the IC50 [6] was 3.8 ± 0.983 nM and the IC50 [7] was greater than 20 nM. The Test results [8] was “++”, the inhibition at 0.05 µM [8] was 5.68% and the inhibition at 0.5 µM [8] was 87.8%. The inhibition at 5 µM [8] was 88.6%.
